Results on four compounds are retold here after US20240277873A1, “ULTRABRIGHT […] PROBES FOR DETECTION AND IMAGING” (Nanyang Technological University, priority 2021, published 2024).

Residues, ends and D or L forms follow the SMILES beside them. *: point of attachment. X1 = COC(=O)/C=C/c1ccc(C2(OC)OOC23C2CC4CC(C2)CC3C4)cc1OCc1ccc(N*)cc1

For data set [1] the following is noted: obtained from the literature (ACS Cent. Sci. 2017, 3, 349-358); cited from earlier work.
Data set [2] can be described thus: Half-life and CL emission of uncaged BTPD in PBS. In kind it is physicochemical. The following applies: in PBS (10% DMSO) at 37° C. How it is done: FIG. 13 depicts the half-lives of BTPDSu (20 μM) and BTPD (20 μM) in pure DMSO upon addition of excess O2^•- (100 μM) and in 10 mM PBS (10% DMSO, pH 7.4) at 37° C., respectively.
The subject of data set [3] is LPS-treated mice. Description: Real-time chemiluminescence imaging in LPS-induced peritonitis model. The data set is classed as in vivo. As to conditions: LPS-treated mice. As for the experimental part:
The model was induced by intraperitoneal injection of LPS (15 ng) in 100 μL of PBS or PBS only as a control. Probe BTPDNe (40 μM·Kg^−1) or MPDNe (40 μM·Kg^−1) in PBS (10 mM, pH 7.4) containing 10% DMSO was intraperitoneally injected in mice. Then, chemiluminescent signals at different post-injection timepoints (0, 5, 10, 20, 45 and 60 min) were recorded using IVIS system bioluminescence with acquiring time of 120 s. After 3 h, the peritoneum was flushed with PBS (5 mL)+EDTA (5 mM). After erythrocyte lysis, neutrophils from C57Bl/6 mice were stained with a PE-labeled CD. After treatment with LPS for 3 h, CD11c antibody and an APC-labeled Ly6G antibody were added to the neutrophils, and the neutrophils were analyzed for double-positive events using flow cytometry (BD Biosciences). Data analysis was performed using Flowjo V10. Neutrophils were gated as CD45+CD11b+Ly6G+cells after the exclusion of doublets.
Fluorescence and chemiluminescence in vivo imaging of the probes were measured by an IVIS spectrum imaging system. Chemiluminescence imaging of the cells was recorded on LX71 inverted microscope. Tissue slices were cut by Leica, Germany slicer and imaged by a Nikon ECLIPSE 80i microscope. The images of tissue sections and cells were recorded with a LSM800 confocal laser scanning microscope. The white light was provided by 150 W LED High Bay Thermo Light.

The target of data set [4] is T1, NE (Homo sapiens, UniProt P08246).
T1 sequence (P08246 30-267): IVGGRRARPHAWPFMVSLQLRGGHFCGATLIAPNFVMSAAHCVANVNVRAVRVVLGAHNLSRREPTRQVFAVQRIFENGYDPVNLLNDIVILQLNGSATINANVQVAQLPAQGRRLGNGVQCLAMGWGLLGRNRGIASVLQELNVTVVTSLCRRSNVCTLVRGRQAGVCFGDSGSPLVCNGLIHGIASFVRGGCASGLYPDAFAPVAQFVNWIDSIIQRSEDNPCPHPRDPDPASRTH
Briefly: Chemiluminescence and fluorescence changes of BTPDNe and MPDNe in the presence of NE (response, selectivity, LOD, half-life). In kind it is biochemical. How it is done: Chemiluminescence and fluorescence changes of BTPDNe (20 μM) were determined in the presence of NE (0.1 U/ml), other different enzymes (˜0.1 U/mL, APN, ALP, Cas-3, cat B, GGT, β-gal and NTR) in 50 mM Tris, 1 M NaCl, 0.05% (w/v) Brij-35, pH 7.5 at 37° C. after 30 min incubation.
Chemiluminescence and fluorescence changes of BTPDNe and MPDNe (20 μM) in the presence of NE (0.1 U/mL), or other different enzymes (˜0.1 U/mL, APN, ALP, Cas-3, Cat B, GGT, β-gal, NTR, CatG and PR3) were tested after 30 min incubation in 50 mM Tris, 1 M NaCl, 0.05% (w/v) Brij-35, pH 7.5 at 37° C.
To determine the LOD for NE enzyme detection, the chemiluminescence of BTPDNe was recorded in 50 mM Tris, 1 M NaCl, 0.05% (w/v) Brij-35, pH 7.5 at 37° C. with different concentrations of NE (0, 0.05, 0.1, 0.5, 1, and 2 U/ml) for 30 min incubation. Then, initial reaction velocity was calculated.

A short description of data set [5]: Blood test: chemiluminescence after incubation in healthy mouse blood. As to conditions: 20 μM, 30 min, 100 μL blood. How it is done:
BTPDNe (20 μM) and MPDNe (20 μM) were incubated for 30 min in healthy mouse blood (100 μL), respectively. Chemiluminescence intensities were measured by IVIS system bioluminescence with an acquisition time of 60 s.

For data set [6], the system named is neutrophils. Briefly: In vitro cell chemiluminescent imaging. The data set is classed as cell-based. As to conditions: probe 10 μM. How it is done: 3T3 cells and immune cells (neutrophils, DC cells, T-cells and macrophage) (10^4 cells) were seeded into confocal cell culture dishes (dia. 15 mm) and incubated for 24 h. […] After incubation, the medium was removed, and the cells were washed thrice. Chemiluminescence imaging of the cells were recorded on LX71 inverted microscope (Olympus), which was equipped with infinity 3-1 (Lumenera) CCD camera. During imaging, the excitation light was blocked and the images were recorded under an open filter, with an acquisition time of 60 s.

Data set [7] is described as follows: Chemiluminescence quantum yield in the presence of O2•-. In kind it is physicochemical. The following applies: probe 20 μM, O2•- 100 μM, PBS (10 mM, pH 7.4, 10% DMSO), 37° C. How it is done:
The chemiluminescence QYs of BOPDSu, BTPDSu, MBPDSu, and MPDSu (20 μM) were measured in the presence of O2^•- (100 μM) in PBS (10 mM, pH 7.4, 10% DMSO) at 37° C. The fluorescence QYs were determined by using Rhodamine B as a standard dye (QY 36%) in PBS (10 mM, pH 7.4) (X. Zhen et al., ACS Nano 2016, 10, 6400-6409). The fluorescence QY of AMPD was obtained from the literature (O. Green et al., ACS Cent. Sci. 2017, 3, 349-358).

Data set [8] is described as follows: Stability of BTPDSu at different pHs (UV spectra). In kind it is physicochemical. As to conditions: 20 μM, pH 5-9 buffers with 10% DMSO, 2 h, 37° C. As for the experimental part:
BTPDSu and ABTPD (20 μM) were stored at different pHs (pH 5, 6, 7, 8 and 9) containing 10% DMSO for 2 h. Then, UV spectra of BTPDSu and fluorescence spectra of ABTPD were measured at different pHs.

The nature of data set [9]: Chemiluminescence kinetic studies (half-lives, CL emission) of caged probes in the presence of O2•-. The data set is classed as physicochemical. As to conditions: for CL Emission: caged probe after activation. As for the experimental part: FIG. […]
[…] The chemiluminescent intensities were plotted as a function of time.
[…] The chemiluminescence signal was recorded by the microplate reader to calculate half-lives of BTPDSu at different pHs.

A short description of data set [10]: Chemiluminescence and fluorescence changes of probes toward O2•- (KO2): response, selectivity, LOD. As for the experimental part:
The chemiluminescence and fluorescence changes of BOPDSu, BTPDSu, MBPDSu and MPDSu (20 μM) were recorded at different concentrations of RONS (40 μM) and other metal ions (100 μM). BOPDSu, BTPDSu, MBPDSu and MPDSu (20 μM) in phosphate buffered saline (PBS) buffer were treated in the presence of different RONS (40 μM), and metal ions (Mg^2+, Ca^2+ or Fe^2+, 100 μM) at 37° C.
The chemiluminescence signals were recorded at different concentrations of KO2 (0, 50, 100, 250, 500 and 1000 nM). Then, the limit of detection (LOD) of BOPDSu, BTPDSu, MBPDSu and MPDSu were calculated by chemiluminescence intensities based on the equation: LOD=3σ/k, where σ is the standard deviation of emission intensity of blank, and k is the slope of plot of emission intensities.

`COC(=O)/C=C/c1ccc(C(=O)OC)cc1O` [AMPD]: the “ΦFl, fluorescence QY of activated probe” value in [1] was 3.1%.
With `COC1(c2ccc(-c3nc4ccccc4s3)c(O)c2)OOC12C1CC3CC(C1)CC2C3` (centres unmarked) [BTPD], the “CL Emission” value in data set [2] is roughly 515 nm.
On to `COC(=O)/C=C/c1ccc(C2(OC)OOC23C2CC4CC(C2)CC3C4)cc1OCc1ccc(NC(=O)[C@@H](NC(=O)[C@@H]2CCCN2C(=O)[C@H](C)NC(=O)[C@H](C)NC(C)=O)C(C)C)cc1` (some centres unmarked) [MPDNe, reference compound] (Ac-AAPV-X1), for which the “chemiluminescent signals after 60 min” value in data set [3] (60 min post injection) was “not”. For the same compound, in [3] (3 h post LPS, i.p. probe 40 μM·kg^−1), the “maximum chemiluminescent signal enhancement in peritoneum relative to negative control group” value was 8.5 fold. Besides, the “selectivity towards NE over other enzymes” value in data set [4] (APN, ALP, Cas-3, cat B, GGT, furin, β-gal, NTR, PR3, CatG (~0.1 U/mL)) is “high selectivity”. Further, the “chemiluminescence enhancement after incubation with NE” value in data set [4] (probe 20 μM, NE 0.1 U/mL, 50 mM Tris, 1 M NaCl, 0.05% Brij-35, pH 7.5, 37° C., 30 min, BTPDNe at 515 nm, MPDNe at 550 nm) is 65.1 fold. Also, the “chemiluminescence intensities after incubation with healthy mouse blood” value in data set [5] was “Negligible”. The “activated chemiluminescence signal in neutrophils, 30 min” value in data set [6] (incubation 30 min) was found to be 56.4 pixels. Further, the “activated chemiluminescence signal in neutrophils, 1 h” value in data set [6] (incubation 1 h) is 16.2 pixels.
Consider “benzothiazole-phenoxyl-dioxetane [BTPDSu]”, for which the “ΦCl, chemiluminescence QY” value in [7] amounted to 0.137 einsteins/mol. Moreover, the “stability: UV spectra at different pHs” value in [8] was “no obvious changes”. Also, the “chemiluminescence signal after 4 h incubation with O2•-” value in data set [9] (BTPDSu 100 μM, O2•- 4 eq., PBS (10 mM, pH 7.4, 10% DMSO), 37° C.) is reported as “still observable by naked eye”. For the same compound, the “CL Emission” value amounted to 520 nm in data set [9] (in PBS (10% DMSO) at 37° C.) and 485 nm in [9] (in pure DMSO). Further, the “LOD against O2•-” value in data set [10] (KO2 0-1000 nM, PBS (10 mM, pH 7.4, 10% DMSO), 37° C., LOD=3σ/k) was found to be 6.8 nM. Further, the “chemiluminescence intensity increase after addition of O2•-” value in data set [10] (probe 20 μM, O2•- 40 μM for 10 s, PBS pH 7.4, 37° C., at 480 / 520 / 580 / 540 nm) is 2960 times. Moreover, the “fluorescent signal enhancement upon cleavage by O2•-” value in data set [10] (probe 20 μM, PBS (10 mM, pH 7.4, 10% DMSO), 37° C., at ~486 / 532 / 582 / 542 nm) was 42.1 folds.
